Assay results reported in PubChem BioAssay AID651685 (The Scripps Research Institute Molecular Screening Center, 2012).
Activity calls are given as the source filed them. How the calls were made is not given here.

molecular target: Mu-type opioid receptor (Homo sapiens) (UniProt P35372); experiment: activators of OPRM1-OPRD1 heterodimerization, late-stage follow-up, cell-based, luminescence, dose response (AID 651685); conditions: cells, luminescence complementation
Sequence (P35372 whole entry, looked up): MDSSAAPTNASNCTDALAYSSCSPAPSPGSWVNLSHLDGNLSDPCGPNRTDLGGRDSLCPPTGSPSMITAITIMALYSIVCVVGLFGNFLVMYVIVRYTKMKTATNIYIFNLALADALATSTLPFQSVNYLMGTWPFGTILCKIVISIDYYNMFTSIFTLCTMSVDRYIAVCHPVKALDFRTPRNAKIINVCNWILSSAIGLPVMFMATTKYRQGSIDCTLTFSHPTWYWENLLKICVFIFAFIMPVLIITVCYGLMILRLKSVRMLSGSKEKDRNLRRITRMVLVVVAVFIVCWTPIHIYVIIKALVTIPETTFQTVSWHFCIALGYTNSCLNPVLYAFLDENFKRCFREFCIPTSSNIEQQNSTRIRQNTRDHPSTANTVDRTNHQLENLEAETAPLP

Structure (SMILES) | EC50
CCOC(=O)C1(CC2CCCCO2)CCN(Cc2c(C)cc(C)cc2-n2cccn2)CC1 (stereo unspecified) | 0.901 µM
CCOC(=O)C1(CCc2ccccc2)CCN(Cc2ccc(OC(C)C)c(C#N)c2)CC1 | > 40 µM (inactive)
CCOC(=O)C1(Cc2ccccc2)CCN(Cc2cccn2-c2cccnc2)CC1 | > 40 µM (inactive)
CCOC(=O)C1(CCOc2ccccc2)CCN(Cc2cccn2-c2cccnc2)CC1 | 4.4 µM
CCOC(=O)C1(CCCc2ccccc2)CCN(Cc2cnn(C)c2)CC1 | 8.9 µM
CCOC(=O)C1(CCc2ccccc2)CCN(Cc2ccc(NC(C)=O)cc2)CC1 | 0.403 µM
CCOC(=O)C1(CCc2ccccc2)CCN(Cc2ccccc2C)CC1 | 7 µM
OCC1(CCc2ccccc2)CCN(Cc2cc(F)ccc2-n2cccn2)CC1 | > 40 µM (inactive)
CCOC(=O)C1(CCc2ccccc2)CCN(Cc2cc(C)cc(C)c2)CC1 | > 40 µM (inactive)
CCOC(=O)C1(Cc2ccccc2)CCN(Cc2cccn2-c2nccs2)CC1 | > 40 µM (inactive)
CCOC(=O)C1(CCOc2ccccc2)CCN(Cc2ccc(O)c(OC)c2)CC1 | inactive
